EC50 data for one substance are collected here from patent publication US9617273B2, “Fused tetra or penta-cyclic dihydrodiazepinocarbazolones as PARP inhibitors” (BEIGENE, LTD., priority 2011, dated 2017).

This assay relates to PARP PARylation in HeLa cells. Kind of assay: PARylation assay in HeLa cells. The settings on record: H2O2-provoked DNA damage. Type of assay: cell-based.

As usually defined, the EC50 is the midpoint of the concentration-response curve. A lower EC50 goes with higher potency in that assay.

In the case of “10-(2-hydroxyethyl)-2,2-dimethyl-2,3,5,10-tetrahydro-[1,2]diazepino[3,4,5,6-def]carbazol-6(1H)-one [Compound 67]”, the concentration giving a half-maximal response (EC50) is 247 nM.
